Experimental data published in patent publication US7626042B2, “O-substituted hydroxyaryl derivatives” (Institute of Medicinal Molecular Design, Inc., priority 2002, dated 2009).

System: NF-κB activation
Assay: Inhibitory activity against NF-κB activation, luciferase reporter assay under TNF-α stimulation
Assay type: cell-based, human
Details: HepG2 cells, TNF-α 40 ng/ml, 4 hours; for inhibition at 1 µg/mL / inhibition at 10 µg/mL: Homo sapiens, read-out: Inhibitory Ratio of NF-κ B Activation(%)
Procedure: Inhibitory activity against NF-κB activation was measured by referring to the method of Hill et al. (Cell, (USA), in 1993, Vol. 73, No. 2, p. 395-406). Using a transfection reagent(Effectene; QIAGEN), the human hepatoma cell strain HepG2 was transfected with a plasmid (pNFκ Luc Reporter Plasmid; STRATAGENE) integrated with an oligonucleotide having five tandem copies of NF-κB binding sequences(TGGGGACTTTCCGC) on a upstream region of firefly luciferase gene (Luc) according to the QIAGEN's protocol, and the cells were incubated for 6 to 24 hours. Then the cells were cultured for 4 hours after the addition of TNF-α (40 ng/ml) in the presence of a test compound, and intracellular luciferase activity was measured by using PicaGene LT (TOYO INK MFG Co., Ltd.) and a chemical luminescence measurement apparatus(SPECTRAFluor Plus; TECAN). The inhibitory ratio was measured as a ratio relative to a value of the luciferase activity in the absence of the test compound.

| SMILES | inhibition at 1 µg/mL (Drug Concentration 1 μg/mL) [%] | inhibition at 10 µg/mL (Drug Concentration 10 μg/mL) [%] | Inhibitory Ratio of NF-κ B Activation(%) (Drug Concentration 1 μg/mL) | Inhibitory Ratio of NF-κ B Activation(%) (Drug Concentration 10 μg/mL) |
| --- | --- | --- | --- | --- |
| O=C(Nc1cc(C(F)(F)F)ccc1Cl)c1cc(Br)ccc1OC(=O)N1CCOCC1 [Compound 85, 5-Bromo-N-[2-chloro-5-(trifluoromethyl)phenyl]-2-[(morpholinocarbonyl)oxy]-benzamide] | 21.4 | 29.8 |  |  |
| O=C(Nc1cc(C(F)(F)F)cc(C(F)(F)F)c1)c1cc(Cl)ccc1OCN1C(=O)c2ccccc2C1=O [Compound 111] |  |  | 94.3 | 96.0 |
| O=C(O)CN(CC(=O)O)C(=O)OCOc1ccc(Cl)cc1C(=O)Nc1cc(C(F)(F)F)cc(C(F)(F)F)c1 [Compound 106] |  |  | 61.0 | 83.5 |
| CCN(CC)C(=O)Oc1ccc(Cl)cc1C(=O)Nc1cc(C(F)(F)F)cc(C(F)(F)F)c1 [Compound 68] |  |  | 53.0 | 47.4 |
| CCOc1ccc(Cl)cc1C(=O)Nc1cc(C(F)(F)F)cc(C(F)(F)F)c1 [Compound 95] |  |  | 31.3 | 71.4 |
| CSc1ccc(NC(=O)Oc2cc3ccccc3cc2C(=O)Nc2ccccc2)cc1 [Compound 66] |  |  | 12.2 | 41.4 |
| COc1cc(NC(=O)c2cc(Br)ccc2OP(=O)([O-])O)cc(C(F)(F)F)c1.[Na+] [Compound 149] |  |  | >99.9 |  |
| Cl.N[C@@H](Cc1ccccc1)C(=O)Oc1ccc(Cl)cc1C(=O)Nc1cc(C(F)(F)F)cc(C(F)(F)F)c1 [Compound 29] |  |  | 90.2 | 97.5 |
| CC(C)(C)OC(=O)C[C@H](NC(=O)CNC(=O)Oc1ccc(Cl)cc1C(=O)Nc1cc(C(F)(F)F)cc(C(F)(F)F)c1)C(=O)OC(C)(C)C [Compound 63, (S)-2-[N-({N-[1,2-di(tert-butoxycarbonyl)ethyl]carbamoyl}-methyl)carbamoyl]oxy-5-chloro-N-[3,5-bis(trifluoromethyl)phenyl]benzamide] | 97.1 | 98.2 |  |  |
| O=C(Cc1ccccc1)Oc1ccc(Cl)cc1C(=O)Nc1cc(C(F)(F)F)cc(C(F)(F)F)c1 [Compound 8] |  |  | 95.0 | 97.9 |
| O=C(Nc1cc(C(F)(F)F)cc(C(F)(F)F)c1)c1cc(Cl)ccc1OS(=O)(=O)O [Compound 49] |  |  | 80.1 | 99.0 |
| CC(C)(C)OC(=O)CC(=O)Oc1ccc(Cl)cc1C(=O)Nc1cc(C(F)(F)F)cc(C(F)(F)F)c1 [Compound 17] |  |  | 97.0 | 96.8 |
| O=C(Nc1cc(C(F)(F)F)cc(C(F)(F)F)c1)c1cc(Cl)ccc1OCOC(=O)N1CCCCC1 [Compound 101, 5-Chloro-2-[(piperidinocarbonyl)oxy]methoxy-N-[3,5-bis(trifluoromethyl)phenyl]-benzamide] | 41 | 42.8 |  |  |
| Cc1ccc(S(=O)(=O)Oc2ccc(Cl)cc2C(=O)Nc2cc(C(F)(F)F)cc(C(F)(F)F)c2)cc1 [Compound 47] |  |  | 84.7 | 92.5 |
| CC(C)(C)C(=O)c1sc(NC(=O)c2cc(Cl)ccc2OP(=O)([O-])O)nc1C(C)(C)C.[Na+] [Compound 128] |  |  | >99.9 | >99.9 |
| CC(C)[C@H](N)C(=O)Oc1ccc(Cl)cc1C(=O)Nc1cc(C(F)(F)F)cc(C(F)(F)F)c1.Cl [Compound 25] |  |  | 93.4 | 97.2 |
| CC(C)C[C@H](NC(=O)[C@@H](N)Cc1ccccc1)C(=O)Oc1ccc(Cl)cc1C(=O)Nc1cc(C(F)(F)F)cc(C(F)(F)F)c1.Cl [Compound 36] |  |  | 97.8 | 98.7 |
| O=C(Oc1ccc(Cl)cc1C(=O)Nc1cc(C(F)(F)F)cc(C(F)(F)F)c1)c1ccncc1 [Compound 7] |  |  | 93.9 | 98.8 |
| CCCCCCCCCC(=O)Oc1ccc(Cl)cc1C(=O)Nc1cc(C(F)(F)F)cc(C(F)(F)F)c1 [Compound 3] |  |  | 96.1 | 98.4 |
| CC(C)C[C@H](NC(=O)[C@H](CC(=O)OC(C)(C)C)NC(=O)OC(C)(C)C)C(=O)Oc1ccc(Cl)cc1C(=O)Nc1cc(C(F)(F)F)cc(C(F)(F)F)c1 [Compound 37, 2-{N-[N-(tert-butoxycarbonyl)-β-O-(tert-butyl)-α-L-aspartyl]-L-leucyl}oxy-5-chloro-N-[3,5-bis(trifluoromethyl)phenyl]benzamide] |  |  | 96.6 | 98.1 |

| SMILES | inhibition at 1 µg/mL (Drug Concentration 1 μg/mL) [%] | inhibition at 10 µg/mL (Drug Concentration 10 μg/mL) [%] | Inhibitory Ratio of NF-κ B Activation(%) (Drug Concentration 1 μg/mL) | Inhibitory Ratio of NF-κ B Activation(%) (Drug Concentration 10 μg/mL) |
| --- | --- | --- | --- | --- |
| CC(=O)OCC(=O)Oc1ccc(Cl)cc1C(=O)Nc1cc(C(F)(F)F)cc(C(F)(F)F)c1 [Compound 11] |  |  | 97.3 | 99.2 |
| O=C(O)C1Oc2ccc(Cl)cc2C(=O)N1c1cc(C(F)(F)F)cc(C(F)(F)F)c1 (stereo not shown) [Compound 116] | 35.1 | 20.1 |  |  |
| CC(=O)NCC(=O)Oc1ccc(Cl)cc1C(=O)Nc1cc(C(F)(F)F)cc(C(F)(F)F)c1 [Compound 20] |  |  | 94.8 | 98.1 |
| O=C(Nc1cc(C(F)(F)F)cc(C(F)(F)F)c1)c1cc(Br)ccc1OC(=O)N1CCOCC1 [Compound 77, 5-Bromo-2-(morpholinocarbonyl)oxy-N-[3,5-bis(trifluoromethyl)phenyl]benzamide] | 69.7 | 31 |  |  |
| CC(C)(C)OC(=O)NCCCC[C@H](NC(=O)CNC(=O)Oc1ccc(Cl)cc1C(=O)Nc1cc(C(F)(F)F)cc(C(F)(F)F)c1)C(=O)OC(C)(C)C [Compound 65] |  |  | 95.8 | 97.3 |
| O=C(Nc1cc(C(F)(F)F)cc(C(F)(F)F)c1)c1cc(Cl)ccc1OP(=O)([O-])O.[Na+] [Compound 52] |  |  | 76.3 | 96.5 |
| CC(=O)Oc1ccccc1C(=O)Oc1ccc(Cl)cc1C(=O)Nc1cc(C(F)(F)F)cc(C(F)(F)F)c1 [Compound 5] |  |  | 96.1 | 98.0 |
| Cl.Cl.NCCCC[C@H](N)C(=O)Oc1ccc(Cl)cc1C(=O)Nc1cc(C(F)(F)F)cc(C(F)(F)F)c1 [Compound 34] |  |  | 51.9 | 99.5 |
| O=C(Nc1cc(C(F)(F)F)ccc1C(F)(F)F)c1cc(Cl)ccc1OP(=O)([O-])O.[Na+] [Compound 122] |  |  | >99.9 | >99.9 |
| COC(=O)[C@H](Cc1ccccc1)NC(=O)Oc1ccc(Cl)cc1C(=O)Nc1cc(C(F)(F)F)cc(C(F)(F)F)c1 [Compound 59] |  |  | 96.2 | 97.8 |
| O=C(Nc1cc(C(F)(F)F)cc(C(F)(F)F)c1)c1ccc(Cl)cc1OC(=O)N1CCOCC1 [Compound 80, 4-Chloro-2-(morpholinocarbonyl)oxy-N-[3,5-bis(trifluoromethyl)phenyl]benzamide] | 91.4 | 68.4 |  |  |
| CC(=O)OCOc1ccc(Cl)cc1C(=O)Nc1cc(C(F)(F)F)cc(C(F)(F)F)c1 [Compound 98] |  |  | 94.9 | 96.6 |
| O=c1oc2ccc(Cl)cc2c(=O)n1-c1cc(C(F)(F)F)cc(C(F)(F)F)c1 [Compound 113] | 96.8 | 97.9 |  |  |
| CCCCC(=O)Oc1ccc(Cl)cc1C(=O)Nc1cc(C(F)(F)F)cc(C(F)(F)F)c1 [Compound 2] |  |  | 97.9 | 98.6 |
| COc1ccc(C(F)(F)F)cc1NC(=O)c1cc(Br)ccc1OC(=O)N1CCOCC1 [Compound 86, 5-Bromo-N-[2-methoxy-5-(trifluoromethyl)phenyl]-2-[(morpholinocarbonyl)oxy]-benzamide] | 23.4 | 11.9 |  |  |
| CN(C(=O)Oc1ccc(Cl)cc1C(=O)Nc1cc(C(F)(F)F)cc(C(F)(F)F)c1)c1ccccc1 [Compound 69] |  |  | 29.7 | 18.7 |
| O=C(COc1ccc(Cl)cc1C(=O)Nc1cc(C(F)(F)F)cc(C(F)(F)F)c1)OCc1ccccc1 [Compound 110, 2-[(benzyloxy)carbonyl]methoxy-5-chloro-N-[3,5-bis(trifluoromethyl)phenyl]-benzamide] | 38.5 | 39.2 |  |  |
| CN(C)S(=O)(=O)Oc1ccc(Cl)cc1C(=O)Nc1cc(C(F)(F)F)cc(C(F)(F)F)c1 [Compound 48] |  |  | 37.9 | 90.4 |
| N[C@@H](CCC(=O)O)C(=O)Oc1ccc(Cl)cc1C(=O)Nc1cc(C(F)(F)F)cc(C(F)(F)F)c1 [Compound 32] |  |  | 98.0 | 98.8 |
| COCC(=O)Oc1ccc(Cl)cc1C(=O)Nc1cc(C(F)(F)F)cc(C(F)(F)F)c1 [Compound 10] |  |  | 95.3 | 97.4 |
